The values below come from patent publication US20250127778A1, “CANCER IMMUNOTHERAPY COMPOSITION CONTAINING INTERACTION INHIBITOR OF STING AND TRIM29 AS ACTIVE INGREDIENT” (SPARK BIOPHARMA, INC, priority 2021, published 2025).

One assay addresses T1, TRIM29 (Homo sapiens, UniProt Q14134).
T1 construct: endogenous in cells; host or cells: A431
T1 sequence (Q14134 1-588): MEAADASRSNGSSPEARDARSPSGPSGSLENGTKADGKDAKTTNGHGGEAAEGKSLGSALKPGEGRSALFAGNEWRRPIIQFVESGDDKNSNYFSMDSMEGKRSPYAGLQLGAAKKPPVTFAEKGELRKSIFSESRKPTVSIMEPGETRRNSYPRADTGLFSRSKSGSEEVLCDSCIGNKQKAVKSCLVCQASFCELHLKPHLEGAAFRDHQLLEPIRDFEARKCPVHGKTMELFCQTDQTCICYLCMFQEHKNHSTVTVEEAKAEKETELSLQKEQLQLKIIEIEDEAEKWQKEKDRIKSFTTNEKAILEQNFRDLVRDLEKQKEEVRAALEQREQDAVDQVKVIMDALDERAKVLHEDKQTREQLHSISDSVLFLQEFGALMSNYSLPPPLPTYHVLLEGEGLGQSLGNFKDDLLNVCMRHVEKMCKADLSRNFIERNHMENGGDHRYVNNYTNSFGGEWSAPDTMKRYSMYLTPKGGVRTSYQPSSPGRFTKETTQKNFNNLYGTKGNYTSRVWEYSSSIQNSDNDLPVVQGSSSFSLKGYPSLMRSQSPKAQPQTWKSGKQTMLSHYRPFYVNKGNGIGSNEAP
The experiment in a line: ITDRF in A431 cells, TRIM29. The conditions noted are these: FIG. 12. Format: binding. An excerpt: It was verified whether the oxopiperazine derivative of the present invention was bound to STING among STING and TRIM29 to inhibit interaction thereof, based on the compound of Formula 1, by the cellular thermal shift assay (CETSA) and the isothermal dose response fingerprint (ITDRF) which were major technologies for verifying the interaction between small molecule compounds and target proteins. (D. M. Molinaetal., Science 2013, 341, 84-87.)
To verify the target of the compound of Formula 1 using the CETSA technique, the human A431 cell lines and mouse Raw264.7 cell lines were seeded on a 100-mm or 150-mm culture dish and cultured for one day. […] Afterwards, centrifugation was performed at 20000 g for 20 minutes at 4° C., the supernatant was transferred to a new container, and each concentration was measured by using the Micro BCA™ protein assay kit (ThermoFisher) according to the protocol of the manufacturer. The concentration of each sample was equally adjusted by using the RIPA lysis buffer, the 5× SDS-PAGE loading buffer (Biosesang) was added according to the ratio of the manufacturer, and the resultant was treated at 95° C. for 5 minutes and analyzed by using the Western blotting method described above.

A further assay has as its system STING mRNA. Put plainly: qRT-PCR of STING mRNA in Raw264.7 cells. Conditions: FIG. 17. The class given is cell-based, mouse. (In general: Quantitative PCR measures a nucleic acid by following its amplification.)
A further assay concerns the target T2, STING (Mus musculus, UniProt Q3TBT3).
T2 sequence (Q3TBT3 1-378): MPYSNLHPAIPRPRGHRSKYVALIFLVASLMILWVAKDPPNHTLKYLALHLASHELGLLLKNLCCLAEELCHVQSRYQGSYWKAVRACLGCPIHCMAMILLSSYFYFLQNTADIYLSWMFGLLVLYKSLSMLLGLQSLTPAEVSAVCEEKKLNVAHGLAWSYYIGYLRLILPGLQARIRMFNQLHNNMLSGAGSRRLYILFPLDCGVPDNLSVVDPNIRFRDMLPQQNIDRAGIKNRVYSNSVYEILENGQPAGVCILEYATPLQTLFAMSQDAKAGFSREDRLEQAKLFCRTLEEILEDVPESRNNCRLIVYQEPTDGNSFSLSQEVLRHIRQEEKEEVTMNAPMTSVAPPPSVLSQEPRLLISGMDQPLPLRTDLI
Put plainly: Western blotting of intracellular STING in Raw264.7 cells. The conditions noted are these: concentration-dependent, FIG. 16. On the set-up: endogenous in cells; host or cells: Raw264.7. Format: cell-based. (Immunoblotting shows a protein as a band on a membrane.)

Assay [1] deals with tumor-infiltrating leukocytes (TILs). The experiment in a line: Flow cytometry of tumor-infiltrating immune cells. Conditions: combination with cGAMP, FIG. 26. Format: in vivo, mouse. On the procedure:
The tumors were extracted after the mice were euthanized with carbon dioxide. The tumor tissues were divided into small pieces with a razor blade, treated with the DMEM solution including 2% horse serum, 0.5 mg/ml of collagenase D, and 40 μg/mL of DNase I for one hour at 37° C., and permeated through a 40-μm filter, thereby being separated into individual cells. Tumor-infiltrating leukocytes (TILs) were separated from the separated cells by percoll concentration-gradient centrifugation, and red blood cells were removed by treatment with red blood cell lysis solution. The obtained cells were redistributed in the FACS solution described above, and FcγRII/III receptors of individual immune cells were neutralized by treatment with the anti-mouse CD16/CD32 Abs (clone 2.4G2) antibody at 4° C. for 10 minutes. The treatment with primary antibodies for individual cell differentiation were performed at 4° C. for 30 minutes. The treated cells were redistributed into a PBS solution after centrifugation and then further centrifuged to remove the supernatant. The cells were fixed by the treatment with 4% paraformaldehyde (PFA) solution at room temperature for 10 minutes, treated with Triton solution (PBS solution including 0.1% BSA and 0.5% Triton-X-100), and centrifuged, and then the supernatant was removed. Cytokine (IFNγ(XMG1.2)-APC, Perforin(S16009A)-PE, granzyme B(QA16A02)-FITC, Biolegend) primary antibodies were treated at room temperature for two hours. Finally, the Triton solution was added, centrifugation was performed, the supernatant was removed, the cells were redistributed into 200 μL of the Triton solution and analyzed by using a FACSCalibur device from BD Bioscience, and the results were quantitatively analyzed by using the FlowJo program from Tree Star, Inc.
In general terms: In flow cytometry, cells or beads pass a laser one at a time.

In the case of `COc1ccc(CC2=CN(c3ccc(C(=O)NC[C@H]4CCCO4)cc3[N+](=O)[O-])[C@H](C(C)C)C(=O)N2Cc2ccc(O)cc2)cc1` [Formula 1, 4-((R)-4-(4-hydroxybenzyl)-2-isopropyl-5-(4-methoxybenzyl)-3-oxo-3,4-dihydropyrazin-1 (2H)-yl)-3-nitro-N-(((R)-tetrahydrofuran-2-yl)methyl)benzamide], the “ITDRF effect on TRIM29” value at TRIM29 is recorded as “without affecting TRIM29”. In addition, the “relation of STING increase to RNA transcription (STING mRNA)” value with STING mRNA is “not related to RNA transcription”. For the same compound, the “intracellular amount of STING” value on STING was “increased”. In assay [1] (ratio of CD45+ cells), the “infiltration of total T cells and cytotoxic T cells into the tumor” value is listed as “increased”. Also, in assay [1], the “activity of infiltrated cytotoxic T cells (TNF-α, granzyme B, Perforin)” value is recorded as “increased” and the “total ratio of myeloid-derived suppressor cells (MDSC)” value is “decreased”.
